Reference: patent US20250204528A1, “USE OF 2-AMINO-3-INDOLYL BUTYRIC ACID OR 3-METHYLPYRROLIDINE-2-CARBOXYLIC ACID AS PLANT IMMUNITY ELICITOR” (NANJING TIANNONG BIOTECHNOLOGY CO., LTD, priority 2021, published 2025)
Several values for one entry are separate records, joined by “and”; a condition that tells them apart may be missing. Identical values can stand only once.

Legend:
[1] = test system: wheat powdery mildew fungus; experiment: Induction of wheat against infection by powdery mildew fungi (greenhouse pots); assay type: in vivo, wheat (NAU0686); conditions: for Disease index of the susceptible wheat / Relative immune effect: concentration greater than 1,000 nm
Procedure: […] A blank control was additionally set. After germination of wheat (NAU0686) seeds was accelerated, the wheat was planted in a sterilized soil culture bowl and cultured in a greenhouse at 23±1° C. with the illumination for 12 h. When the seedlings grew to a stage of one true leaf and one terminal bud, the wheat seedlings were sprayed with the 2-amino-3-indolyl butyric acid solutions at the above concentrations on stems and leaves. The treatment was repeated once every 24 h and a total of two treatments was performed. Fresh wheat powdery mildew fungus spores were evenly scattered on the wheat leaves after 24 h. 3 pots of the plants were treated each time with 20 plants in each pot. After 10 d, the disease grade of the wheat after each treatment was investigated. The disease degree was recorded according to the wheat powdery mildew grading standard in the Guidelines for Field Efficacy Trials of Pesticides (I), and the disease indexes and the relative immune effects were calculated by using the same calculation formula as that of those of the tomato spotted wilt.
Grading standard of wheat powdery mildew (taking leaves as units): • grade 1: the area of the disease spots accounted 5% or less of that of the whole leaves; • grade 3: the area of the disease spots accounted for 6%-15% of that of the whole leaves; and • grade 5: the area of the disease spots accounted for 16%-25% of that of the whole leaves; and • grade 7: the area of the disease spots accounted for 26%-50% of that of the whole leaves; and • grade 9: the area of the disease spots accounted for 50% or more of that of the whole leaves.

[2] = test system: tomato spotted wilt viruses; experiment: Induction of tobacco against infection by tomato spotted wilt viruses; assay type: in vivo, Nicotiana benthamiana; conditions: for Disease index / Relative immune effect (%): tobacco; for Disease indexes of the tobacco / Relative immune effects: each treatment in concentration range 0.1-10 nm; for Content of virus proteins: relative protein content in leaves after 3 d, Western blot/Image J
Procedure: Tomato spotted wilt viruses were taken from Yunnan province of China. An initial virus source was placed in a refrigerator at −80° C. for storage and activated by inoculation on Nicotiana benthamiana leaves by using a friction inoculation. Virus plasmids were extracted for transformation of Escherichia coli competent cells. The bacteria were coated on a resistant plate for culture, single colonies were selected for PCR screening, and positive colonies were selected for sequencing and subsequent plasmid extraction. The plasmids with normal sequencing were added into Agrobacterium competent cells and subjected to the Agrobacterium transformation by using an electric shock method. The transformed Agrobacterium liquid was coated on a screening plate with corresponding resistance and cultured at 28±1° C. for 48 h. Single colonies of the Agrobacterium on the transformation plate were selected, placed in a 5-mL LB medium containing the corresponding resistance and cultured overnight at 28° C. and 180 rpm. The bacteria were collected by centrifugation at 6,000 rpm for 2 min, suspended in an Agrobacterium treatment buffer (10 mM MgCl2, 10 mM MES and 10 μM acetosyringone) to enable the OD600 value of the suspension to be 0.5, and treated in a dark place at 28° C. for 3 h for later use.
2-amino-3-indolyl butyric acid was dissolved in distilled water and gradiently diluted with distilled water to obtain solutions of 0 nM, 0.1 nM, 1 nM and 10 nM. Nicotiana benthamiana seeds were sown in a small pot, illuminated at 22±1° C. for 12 h/12 h, and cultured for 5 weeks. Healthy tobacco plants (preferably 8-10 leaves) were selected and sprayed with the 2-amino-3-indolyl butyric acid solutions at the above concentrations on stems and leaves. The treatment was repeated once every 24 h and a total of two treatments was performed. After 24 h, the Agrobacterium liquid with the uniform concentration was extracted by using a 1 mL injector, an injection port of the injector was directly pressed on a small hole on the back of the tobacco leaves, and the bacterium liquid was slowly injected to infiltrate the whole leaves. The infiltrated tobacco was transferred to the environment at 22±1° C. and with 12 h/12 h illumination for culturing. The tobacco was observed and recorded by a microscope after 3 d. Meanwhile, the sample was taken, the gray levels of protein bands were analyzed by using Western blot combined with an Image J software, and the relative protein content of the viruses in the leaves was determined. The disease condition of the tobacco leaves was observed after 15 d and the disease index was recorded according to GB/T23222-2008 Grade and investigation method of tobacco diseases and insect pests. The formula was as follows: […]
Grading standard of diseases caused by tomato spotted wilt viruses (grading and investigation by taking plants as units): • grade 0: the whole plants were disease-free; • grade 1: the veins of interior leaves were obvious or leaves were slightly spotted, and the diseased plants were not obviously dwarfed; • grade 3: one third leaves were spotted but not deformed, or the plants were dwarfed to the heights of more than three fourths of those of normal plants; • grade 5: one third to one half leaves were spotted, or a few leaves were deformed, or main veins were blackened, or the plants were dwarfed to the heights of two thirds to three fourths of those of the normal plants; • grade 7: one half to two thirds leaves were spotted or deformed, or a few main lateral veins were necrotic, or the plants were dwarfed to the heights of one half to two thirds of those of the normal plants; and • grade 9: the leaves of the whole plates were spotted, severely deformed or necrotic, or the diseased plants were dwarfed to the heights of […] of those of the normal plants.

"Sikang 1" cotton = experiment: Cotton under salt stress (100 mM NaCl); assay type: in vivo; conditions: 100 mM NaCl three days; for Mortality (%): cotton plants
Procedure: An experimental material was “Sikang 1” cotton which was hydroponic in a 500-mL plastic cup, and a ½ Hoagland nutrient solution was replaced every other two days. When the cotton seedling grew until the second true leaves were completely unfolded, a 2-amino-3-indolyl butyric acid solution was sprayed on the leaf surfaces. Concentrations at 0 nm, 1 nm, 10 nm, 100 nm and 1,000 nm were set in the experiment. Meanwhile, 0.02% Tween 20 was added as a surfactant. The solution was sprayed every 24 h for 2 times and NaCl was added into a ½ Hoagland nutrient solution the next day after the treatment to make the final concentration of 100 mM to perform a salt stress treatment. Each treatment was performed in three replicates. A rehydration treatment was performed after three days of the salt stress. The salt damage symptoms of the cotton were observed and a salt damage index was calculated by using a calculation formula as follows.

[3] = treatment concentration 10,000 nm
[4] = 10 nm, as printed with % in summary
[5] = treatment concentration 0.1 nm, 15 d after inoculation
[6] = treatment concentration 1 nm, 15 d after inoculation

| SMILES | Disease index of the susceptible wheat [1] | Relative immune effect [1] | Relative immune effect (%) ([1]; treatment concentration 10 nm) | Relative immune effect (%) ([1]; treatment concentration 100 nm) | Relative immune effect (%) [1, 3] | Disease index [2, 4] | Disease indexes of the tobacco [2] | Relative immune effects [2] | Content of virus proteins ([2]; treatment concentration 0.1 nm) | Relative immune effect (%) ([2]; treatment concentration 0.1 nm) | Disease index [2, 5] | Content of virus proteins ([2]; treatment concentration 1 nm) | Relative immune effect (%) ([2]; treatment concentration 1 nm) | Disease index [2, 6] | Relative immune effect (%) ([2]; treatment concentration 10 nm) | Salt damage index (%) ("Sikang 1" cotton; 1 nm) | Mortality (%) ("Sikang 1" cotton; 1 nm) | Salt damage index (%) ("Sikang 1" cotton; 10 nm) | Mortality (%) ("Sikang 1" cotton; 10 nm) | Salt damage index (%) ("Sikang 1" cotton; 100 nm) | further results |
| --- | --- | --- | --- | --- | --- | --- | --- | --- | --- | --- | --- | --- | --- | --- | --- | --- | --- | --- | --- | --- | --- |
| CC(c1c[nH]c2ccccc12)C(N)C(=O)O (centres unmarked) | lower than 50 | exceeded 50% | 22.04% | 32.59% | 68.42% and 68.43% | 30.42% | lower than 50 | ≥ 45% | 0.41 ± 0.005b | 46.68% | 49.70 ± 1.51b | 0.32 ± 0.014c | 56.11% | 40.91 ± 3.14c | 67.36% | 63% | 45% | 57% | 43% | 53% | Relative immune effect (%) ([1]; treatment concentration 1,000 nm): 53.58%; Mortality (%) ("Sikang 1" cotton; 100 nm): 33%; Salt damage index (%) ("Sikang 1" cotton; 1,000 nm): 44%; Mortality (%) ("Sikang 1" cotton; 1,000 nm): 27% |
| CC1CCNC1C(=O)O (centres unmarked) [3-methylpyrrolidine-2-carboxylic acid] | lower than 50 | exceeded 50% | 25.04% | 43.73% | 68.57% | 21.44% | lower than 50 | ≥ 50% | 0.37 ± 0.003b | 50.84% | 41.31 ± 0.34b | 0.24 ± 0.001c | 68.43% | 27.89 ± 2.16c | 75.73% | 67% | 47% | 54% | 42% | 49% | Mortality (%) ("Sikang 1" cotton; 100 nm): 28%; Salt damage index (%) ("Sikang 1" cotton; 1,000 nm): 39%; Mortality (%) ("Sikang 1" cotton; 1,000 nm): 24% |
